# According to patent US20040058948A1, “Mappicine analogs, methods of inhibiting retroviral reverse transcriptase and methods of treating retroviruses” (priority 2002, published 2004):
# How the values were obtained:
# [1] = target: T1, RNA-dependent DNA polymerase activity of HIV reverse transcriptase (Human immunodeficiency virus type 1 group M subtype B, UniProt P04585); assay: RNA-dependent DNA polymerase activity assay of HIV reverse transcriptase; format: biochemical, HIV-1; conditions: 10 μM inhibitor concentration, activity with analog / without analog x 100
# T1 construct: made in house
# Experimental: In separate, representative assays, mappicine analogs were tested for their ability to inhibit the RNA-dependent DNA polymerase activity of HIV reverse transcriptase and for their ability to inhibit the RNase H activity of HIV reverse transcriptase. The assay for RNA-dependent DNA polymerase activity is discussed in Borkow, G. et al., “Inhibition of the Ribonuclease H and DNA Polymerase Activities of HIV-1 Reverse Transcriptase by N-(4-tert-Butylbenzoyl)-2-hydroxy-1-naphthaldehyde Hydrazone,” Biochemistry 1997, 36, 3179-3185, a copy of which is attached hereto, and the disclosure of which is incorporated herein by reference. Assays were carried out in the absence and in the presence of mappicine analogs (10 μM final concentration). The results are reported as % residual activity, which is the RNA-dependent DNA polymerase activity of the enzyme in the presence of the mappicine analog divided by the RNA-dependent activity of the enzyme in the absence of the mappicine analog, multiplied by 100.
# [2] = target: RNase H activity of HIV reverse transcriptase (Human immunodeficiency virus type 1 group M subtype B, UniProt P04585); assay: Fluorescence (FRET)-based RNase H activity assay of HIV reverse transcriptase; format: biochemical, HIV-1; parameters: final concentration of 2.5 nM of the p51/p66 RT heterodimer in the assay; made in house; conditions: 10 μM inhibitor concentration, activity with analog / without analog x 100
# Experimental: Recently, a fluorescence-based assay to perform preliminary screens in search of HIV RNase H inhibitors has been developed. The assay, which is carried out in 96-well microplates and is adaptable to robotics, is the first high-throughput screen for RNase H and is described in further detail in the Experimental section. HIV-1 RT and human RNase H were cloned, and thus comparative analysis of inhibitor action could be conducted simultaneously.
# The assay for RNase H activity of HIV reverse transcriptase was the fluorescence-based assay described in detail in the Experimental section and discussed in U.S. Provisional Patent Application Serial No. 60/318,359. Assays were carried out in the absence and in the presence of mappicine analogs (10 μM final concentration). The results are reported as % residual activity, which is the RNase H activity of the enzyme in the presence of the mappicine analog divided by the RNase H activity of the enzyme in the absence of the mappicine analog, multiplied by 100. Alternatively, the results are reported as % inhibition, which is calculated as the ratio of the RNase H activity of the enzyme in the presence of the mappicine analog to the enzyme activity in the absence of the mappicine analog, multiplied by 100, and then subtracting this number from 100.
# Assay for Ribonuclease H Activity Based on Fluorescence Resonance Energy Transfer (FRET)
# Preparation of the Fluorophore-RNA/Quencher-DNA Hybrid Duplex Substrate.
# The RNA/DNA hybrid duplex substrate for use in the assay comprises an RNA oligonucleotide of sequence 5′-GAU CUG AGC CUG GGA GCU-3′, modified at the 3′-end with Aminolink-2 and derivatized with fluorescein isothiocyanate, to provide a modified RNA oligonucleotide of the sequence 5′-GAU CUG AGC CUG GGA GCU-fluorescein-3′, annealed to a complementary DNA oligonucleotide of the sequence 5′-AGC TCC CAG GCT CAG ATC-3′ modified at the 5′-end with Aminolink-2 and derivatized with the FRET acceptor DABCYL succinimidyl ester, to provide a modified DNA oligonucleotide of the sequence 5′-DABCYL-AGC TCC CAG GCT CAG ATC-3′.
# To prepare the 3′-fluorescein-RNA/5′-DABCYL-DNA hybrid duplex substrate, a known amount of 3′-fluorescein-RNA was dissolved in 20 mM Tris buffer (pH 8.0, 37° C.) to provide a final concentration of 5 μM. Two equivalents of the 5′-DABCYL-DNA oligonucleotide were added, and the mixture was heated to 90° C. for 5 min and cooled slowly to room temperature to allow duplex formation. The positioning of the fluorescein donor at the 3′-end of the RNA oligonucleotide and the DABCYL acceptor at the 5′-end of the DNA oligonucleotide provides a very close proximity of the donor and acceptor that results in a very intense quenching of the fluorescein emission in the intact RNA/DNA hybrid duplex substrate due to the spectral overlap of the fluorescence emission of fluorescein with the absorption spectrum of DABCYL. In addition, DABCYL is non-fluorescent, and thus cannot contribute any light emission. Both of these factors result in a very low background and provide a high signal-to-noise in the assay measurements. The ratio of the donor fluorescence in the absence and in the presence of its quencher is approximately fifteen-fold.
# Microplate Assay Protocol for the Measurement of RNase H Activity Using the RNA/DNA Hybrid Duplex Substrate.
# Reaction assay mixtures contained 5 μl of a stock solution of 2.5 μM RNA/DNA hybrid duplex substrate added to 85 μl of assay buffer (50 mM Tris, pH 8.0, 37° C., containing 60 mM KCl and 2.5 mM MgCl2), prepared in the wells of a 96-well fluorescence microtiter plate, and warmed to 37° C. using the temperature control of the SpectraMax Gemini XS microplate spectrofluorometer (Molecular Devices). Reactions were started by the addition of 5 μl of a solution of recombinant HIV-1 reverse transcriptase (usually providing a final concentration of 2.5 nM of the p51/p66 RT heterodimer in the assay), and mixing using the automatic mixing function of the microplate spectrofluorometer. […]
Structure (SMILES),Residual activity (%) Polymerase [1] [%],Residual activity (%) RNase H [2] [%],Residual activity (%) Polymerase ([1]; 10 µM) [%],Residual activity (%) RNase H ([2]; 10 µM) [%]
Cc1ccc2nc3c(c([Si](C)(C)C)c2c1)Cn1c-3cc(C(O)Cc2ccccc2)c(C)c1=O (racemic) [5Cε],87,93,,
CCC(O)c1cc2n(c(=O)c1C)Cc1c-2nc2ccc(OC)cc2c1[Si](C)(C)C (racemic) [5Dα],88,78,,
COc1ccc2nc3c(c([Si](C)(C)C)c2c1)Cn1c-3cc(C(O)Cc2ccccc2)c(C)c1=O (racemic) [5Dε],48,70,,
CCCCCCc1c2c(nc3ccccc13)-c1cc(C(O)CC)c(C)c(=O)n1C2 (racemic) [8Aα],42,83,,
CCCCCCc1c2c(nc3ccccc13)-c1cc(C(O)Cc3ccccc3)c(C)c(=O)n1C2 (racemic) [8Aε],58,71,,
CCCCCCc1c2c(nc3ccc(F)cc13)-c1cc(C(O)C(C)(C)C)c(C)c(=O)n1C2 (racemic) [8Bβ],50,97,,
CCCCCCc1c2c(nc3ccc(F)cc13)-c1cc(C(O)Cc3ccccc3)c(C)c(=O)n1C2 (racemic) [8Bε],92,84,,
CCCCCCc1c2c(nc3ccc(C)cc13)-c1cc(C(O)CC)c(C)c(=O)n1C2 (racemic) [8Cα],84,65,,
CCCCCCc1c2c(nc3ccc(C)cc13)-c1cc(C(O)C(C)(C)C)c(C)c(=O)n1C2 (racemic) [8Cβ],111,93,,
CCCCCCc1c2c(nc3ccc(C)cc13)-c1cc(C(O)Cc3ccccc3)c(C)c(=O)n1C2 (racemic) [8Cε],76,76,,
CCCCCCc1c2c(nc3ccc(OC)cc13)-c1cc(C(O)CC)c(C)c(=O)n1C2 (racemic) [8Dα],85,66,,
CCCCCCc1c2c(nc3ccc(OC)cc13)-c1cc(C(O)C(C)(C)C)c(C)c(=O)n1C2 (racemic) [8Dβ],68,67,,
CCCCCCc1c2c(nc3ccc(OC)cc13)-c1cc(C(O)CCC3CCCCC3)c(C)c(=O)n1C2 (racemic) [8Dδ],81,63,,
CCC(O)c1cc2n(c(=O)c1C)Cc1c-2nc2ccccc2c1[Si](C)(C)C (racemic) [AG 1M],,,89,73
CCc1c2c(nc3ccccc13)-c1cc(C(O)CC)c(C)c(=O)n1C2 (racemic) [AG 4M],100,74,,
CCC(=O)c1cc2n(c(=O)c1C)Cc1c-2nc2ccccc2c1-c1ccccc1 [3Aακ],64,87,,

Structure (SMILES),Residual activity (%) Polymerase [1] [%],Residual activity (%) RNase H [2] [%],Residual activity (%) Polymerase ([1]; 10 µM) [%],Residual activity (%) RNase H ([2]; 10 µM) [%]
Cc1c(C(=O)C(C)(C)C)cc2n(c1=O)Cc1c-2nc2ccccc2c1-c1ccccc1 [3Aβκ],64,94,,
Cc1c(C(=O)CCC2CCCCC2)cc2n(c1=O)Cc1c-2nc2ccccc2c1-c1ccccc1 [3Aδκ],66,73,,
Cc1c(C(O)Cc2ccccc2)cc2n(c1=O)Cc1c-2nc2ccccc2c1-c1ccccc1 (stereo not shown) [3Aε],34,99,,
CCC(=O)c1cc2n(c(=O)c1C)Cc1c-2nc2ccc(F)cc2c1-c1ccccc1 [3Bακ],100,94,,
Cc1c(C(=O)C(C)(C)C)cc2n(c1=O)Cc1c-2nc2ccc(F)cc2c1-c1ccccc1 [3Bβκ],61,95,,
Cc1c(C(=O)CCC2CCCCC2)cc2n(c1=O)Cc1c-2nc2ccc(F)cc2c1-c1ccccc1 [3Bδκ],59,93,,
CCC(=O)c1cc2n(c(=O)c1C)Cc1c-2nc2ccc(C)cc2c1-c1ccccc1 [3Cακ],71,99,,
Cc1ccc2nc3c(c(-c4ccccc4)c2c1)Cn1c-3cc(C(=O)C(C)(C)C)c(C)c1=O [3Cβκ],63,96,,
Cc1ccc2nc3c(c(-c4ccccc4)c2c1)Cn1c-3cc(C(O)CCC2CCCCC2)c(C)c1=O (stereo not shown) [3Cδ],74,93,,
Cc1ccc2nc3c(c(-c4ccccc4)c2c1)Cn1c-3cc(C(=O)CCC2CCCCC2)c(C)c1=O [3Cδκ],65,93,,
CCC(=O)c1cc2n(c(=O)c1C)Cc1c-2nc2ccc(OC)cc2c1-c1ccccc1 [3Dακ],76,104,,
COc1ccc2nc3c(c(-c4ccccc4)c2c1)Cn1c-3cc(C(O)C(C)(C)C)c(C)c1=O (stereo not shown) [3Dβ],85,70,,
COc1ccc2nc3c(c(-c4ccccc4)c2c1)Cn1c-3cc(C(=O)CCC2CCCCC2)c(C)c1=O [3Dδκ],81,97,,
COc1ccc2nc3c(c(-c4ccccc4)c2c1)Cn1c-3cc(C(=O)Cc2ccccc2)c(C)c1=O [3Dεκ],73,88,,
CCC(=O)c1cc2n(c(=O)c1C)Cc1c-2nc2ccccc2c1[Si](C)(C)C(C)(C)C [4Aακ],43,76,,
Cc1c(C(=O)C(C)(C)C)cc2n(c1=O)Cc1c-2nc2ccccc2c1[Si](C)(C)C(C)(C)C [4Aβκ],79,70,,
